The values that follow come from patent USRE36374E, “1,2,3-triazole and tetrazole substituted piperidine or tetrahydropyridine compounds useful as acetylcholine agonists” (priority 1987, dated 1999).

Assay [1] deals with central cholinergic receptors. The experiment in a line: 3H-oxotremorine-M (Oxo-M) displacement from rat brain homogenates. The conditions noted are these: displacement of 3H-oxotremorine-M, pH 7.4, 40 min, 30° C. The assay is classed as binding. The protocol: (§1) Affinity to central cholinergic receptors in vitro was measured as the ability of the compounds to displace ^3 H-oxotremorine-M (Oxo-M) from rat brain homogenates, while affinity to central muscarinic M-1-receptors in vitro was measured as the ability of the compounds to displace ^3 H-pirenzepin (Pz) from rat brain homogenates.
^3 H-oxotremorine M binding
was performed essentially as described by Birdsdall et al., 1980. Briefly, rat brains were homogenized in 100 vol (w/v) 10 mM Na,K-phosphate buffer (pH 7.4) and aliquots incubated with ^3 H-oxotremorine M (84.9 Ci/m-mol, NEN) alone or in the presence of test compound in a total volume of 1.5 ml for 40 min. at 30° C. The reaction was stopped by adding 5 ml cold buffer and filtered through Whatman GF/B filters soaked previously in 0.1% polyethylenimin (Sigma) for minimum 30 min. The filters were washed once with the same volume of buffer, transferred to scintillation vials and extracted in scintillation fluid (Pico-fluor 15, Packard) for at least two hours before counted in a liquid scintillation spectrometer (Beckman LS 1800). Non-specific binding was estimated at 10 μM atropine and all estimations made in triplicate. At least two displacement curves were made for each compound tested.
Birdsdall N. J. M., Hulme E. C., and Burgen A. S. V. (1980). "The Character of Muscarinic Receptors in Different Regions of the Rat Brain". Proc. Roy. […] London (Series B) 207, 1.
For orientation: Displacement assays read how much labelled ligand stays bound in the presence of the test substance.

For assay [2], the target named is T1, central muscarinic M-1-receptors (Rattus norvegicus, UniProt P08482).
T1 sequence (P08482 1-460): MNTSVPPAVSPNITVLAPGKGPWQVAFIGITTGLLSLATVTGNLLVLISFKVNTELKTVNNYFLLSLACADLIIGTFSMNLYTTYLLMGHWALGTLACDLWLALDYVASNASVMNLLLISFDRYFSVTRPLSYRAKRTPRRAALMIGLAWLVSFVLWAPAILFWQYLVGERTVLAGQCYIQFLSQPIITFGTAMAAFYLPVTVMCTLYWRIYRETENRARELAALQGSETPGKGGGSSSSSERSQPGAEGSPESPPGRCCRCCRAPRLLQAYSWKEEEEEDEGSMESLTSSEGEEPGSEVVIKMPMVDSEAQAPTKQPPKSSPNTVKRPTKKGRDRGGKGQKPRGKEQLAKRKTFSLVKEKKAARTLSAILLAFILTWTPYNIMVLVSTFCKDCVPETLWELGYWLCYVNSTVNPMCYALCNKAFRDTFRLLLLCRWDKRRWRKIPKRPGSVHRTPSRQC
The experiment in a line: 3H-pirenzepine (Pz) displacement from rat brain homogenates. The assay is classed as binding. How it is done:
as §1
was performed essentially as described by Watson et al., 1983, the conditions being very much the same as for ^3 H-oxotremorine binding, except that aliquots were incubated with 1.0 nM ^3 H-pirenzepine for 60 min. at 25° C. and that the reaction was stopped by direct filtration followed by 3 washes with 4 ml buffer.
Watson, M., Yamamura, H. I., and Roeske, W. R. (1983). "A unique regulatory profile and regional distribution of ^3 H-pirenzepin binding in the rat provide evidence for distinct M1 and M2 muscarinic receptor subtypes". Life Sci. 32 (1983) 3001-3011.

Setting [3] is: displacement of 1.0 nM 3H-pirenzepine, rat brain homogenates, 60 min, 25° C, read-out: Pz, IC50.

The structures appear in SMILES notation. Counter-ions that a name gives are not always drawn. Like-named read-outs stand apart in the source and are kept apart here.

The term IC50 denotes the concentration that inhibits the measured activity by half. Turning to `Cn1nnc(C2=CCCNC2)n1` [Compound 8, 2-Methyl-5(1,2,5,6-tetrahydro-3-pyridyl)-2H-tetrazole, hydrobromide], the IC50 in assay [1] is 6.3 nM; in assay [2] (setting [3]) it was 2100 nM.

For `Cn1nnnc1C1=CCCNC1` [Compound 9, 1-Methyl-5(1,2,5,6-tetrahydro-3-pyridyl)-2H-tetrazole, fumarate], the IC50 in assay [1] turned out to be 3200 nM; in assay [2] (setting [3]), 27000 nM.

On to `CN1CCC=C(c2nnn(C)n2)C1` [Compound 10, 2-Methyl-5-(1-methyl-1,2,5,6-tetrahydro-3-pyridyl)2H-tetrazole], for which the results for the IC50 in assay [1] and in assay [2] (setting [3]) were 8.7 nM and 390 nM, respectively.

For `Cn1nnc(C2CCCNC2)n1` (stereo not drawn) [Compound 13, 2-Methyl-(3-piperidyl)-2H-tetrazole, hydrochloride], the IC50 came out at 47 nM in assay [1] and 3600 nM in assay [2].

As to `CN1CCCC(c2nnn(C)n2)C1` (stereo not drawn) [Compound 14, 2-Methyl-5-methyl-3-piperidyl)-2H-tetrazole, oxalate], the IC50 in assay [1] was determined as 1700 nM; in assay [2] (setting [3]), 7400 nM.

In the case of `CC(C)n1nnc(C2=CCCN(C)C2)n1` [Compound 16, 2-Isopropyl-5-(1-methyl-1,2,5,6-tetrahydro-3-pyridyl)-2H-tetrazole, fumarate], the IC50 is 120 nM in assay [1] and 130 nM in assay [2] (setting [3]).

As to `CC(C)n1nnc(C2=CCCNC2)n1` [Compound 17, 2-Isopropyl-5-(1,2,5,6-tetrahydro-3-pyridyl)-2H-tetrazole, hydrobromide], the figures for the IC50 in assay [1] and in assay [2] (setting [3]) were 280 nM and 480 nM, respectively.

Consider `CCn1nnc(C2=CCCNC2)n1` [Compound 19, 2-Ethyl-5-(1,2,5,6-tetraydro-3-pyridyl)-2H-tetrazole, hydrobromide], for which the IC50 in assay [1] worked out at 32 nM; in assay [2] (setting [3]), 1500 nM.

In the case of `CCn1nnc(C2=CCCN(C)C2)n1` [Compound 20, 2-Ethyl-5-(1-methyl-1,2,5,6-tetrahydro-3-pyridyl)-2H-tetrazole, oxalate], the values for the concentration for half-maximal inhibition (IC50) in assay [1] and in assay [2] (setting [3]) were 16 nM and 130 nM, respectively.

For `C#CCn1nnc(C2=CCCNC2)n1` [Compound 22, 2-(2-Propynyl)-5-(1,2,5,6-tetrahydropyridyl)-2H-tetrazole, hydrochloride], in assay [2] (setting [3]), the IC50 is 380 nM.

On to `C=C=Cn1nnc(C2=CCCNC2)n1` [Compound 23, 2-Allenyl-5-(1,2,5,6-tetrahydro-3-pyridyl)-2H-tetrazole, hydrochloride], for which the values for the IC50 in assay [1] and in assay [2] (setting [3]) were 140 nM and 1100 nM, respectively.

In the case of `C#CCn1nnc(C2CCCNC2)n1` (stereo not drawn) [Compound 26, 2-(2-Propynyl)-5-(3-piperidyl)2H-tetrazole, hydrochloride], the IC50 in assay [1] stood at 44 nM; in assay [2], 400 nM.

Take `CC1CC=C(c2nnn(C)n2)CN1` (stereo not drawn) [Compound 30, 2-Methyl-5-(6-methyl-1,2,5,6-tetrahydro-3-pyridyl)-2H-tetrazole, hydrobromide]: the IC50 in assay [1] was determined as 250 nM; in assay [2] (setting [3]), 1400 nM.

On to `CC1CC=C(c2nnn(C)n2)CN1C` (stereo not drawn) [Compound 31, 2-Methyl-5-(1,6-dimethyl-1,2,5,6-tetrahydro-3-pyridyl)-2H-tetrazole], for which the results for the IC50 in assay [1] and in assay [2] (setting [3]) were 310 nM and 140 nM, respectively.

Consider `CC1CC=C(c2nnn(C(C)C)n2)CN1` (stereo not drawn) [Compound 33, 2-Isopropyl-5-(6-methyl-1,2,5,6-tetraydro-3-pyridyl)-2H-tetrazole, hydrobromide], for which the IC50 came out at 320 nM in assay [1] and 900 nM in assay [2] (setting [3]).

Regarding `CC1CC=C(c2nnn(C(C)C)n2)CN1C` (stereo not drawn) [Compound 34, 2-Isopropyl-5-(1,6-dimethyl-1,2,5,6-tetrahydro-3-pyridyl)-2H-tetrazole], the figures for the IC50 in assay [1] and in assay [2] (setting [3]) were 180 nM and 350 nM, respectively.

Turning to `C#CCn1nnc(C2=CCC(C)NC2)n1` (stereo not drawn) [Compound 36, 2-(2-Propynyl-5-(6-methyl-1,2,5,6-tetrahydro-3-pyridyl)-2H-tetrazole, hydrochloride], the IC50 in assay [1] worked out at 390 nM; in assay [2] (setting [3]), 250 nM.

Regarding `CC1=C(c2nnn(C)n2)CN(C)CC1` [Compound 38, 2-Methyl-5(1,4-dimethyl-1,2,5,6-tetrahydro-3-pyridyl)-2H-tetrazole, oxalate], the IC50 in assay [1] came out at 1000 nM; in assay [2] (setting [3]), 1200 nM.

Consider `CC1=C(c2nnn(C)n2)CNCC1` [Compound 39, 2-Methyl-5-(4-methyl-1,2,5,6-tetrahydro-3-pyridyl)-2H-tetrazole, 0.75 oxalate], for which the IC50 is 810 nM in assay [1] and 1500 nM in assay [2] (setting [3]).

As for `CC1C=C(c2nnn(C)n2)CNC1` (stereo not drawn) [Compound 47, 2-Methyl-5-(5-methyl-1,2,5,6-tetrahydro-3-pyridyl)-2H-tetrazole, hydrobromide], the IC50 in assay [1] was found to be 98 nM; in assay [2] (setting [3]), 280 nM.

For the molecule `CC1C=C(c2nnn(C)n2)CN(C)C1` (stereo not drawn) [Compound 48, 2-Methyl-5-(1,5-dimethyl-1,2,5,6-tetrahydro-3-pyridyl)-2H tetrazole, oxalate], the IC50 was found to be 680 nM in assay [1] and 1800 nM in assay [2] (setting [3]).

Regarding `C#CCn1nnc(C2=CC(C)CNC2)n1` (stereo not drawn) [Compound 50, 2-(2-Propynyl)-5-(5-methyl-1,2,5,6-tetrahydro-3-pyridyl)-2H-tetrazole hydrochloride], the IC50 came out at 62 nM in assay [1] and 68 nM in assay [2] (setting [3]).

Regarding `Cc1cc(C2=CCCNC2)on1` [Compound 54, 3-Methyl-5(1,2,5,6-tetrahydro-3-pyridyl)-isoxazole, maleate], the IC50 in assay [1] turned out to be 230 nM; in assay [2] (setting [3]) it was 4000 nM.

Regarding `Cc1cc(C2=CCCNC2)no1` [Compound 55, 5-Methyl-3-(1,2,5,6-tetrahydro-3-pyridyl)-isoxazole, hydrochloride], the IC50 was 1000 nM in assay [1] and 2500 nM in assay [2] (setting [3]).

Regarding `CN1CCC=C(c2ncn(C)n2)C1` [Compound 59, 1-Methyl-3(1-methyl-1,2,5,6-tetrahydro-3-pyridyl)-1,2,4-triazole, hemifumarate], the IC50 worked out at 280 nM in assay [1] and 610 nM in assay [2] (setting [3]).

For the molecule `Cn1cnc(C2=CCCNC2)n1` [Compound 60, 1-Methyl-3-(1,2,5,6-tetrahydro-3-pyridyl-1,2,4-triazole, dihydrobromide], the values for the half-maximal inhibitory concentration (IC50) in assay [1] and in assay [2] (setting [3]) were 1400 nM and 4900 nM, respectively.

For the molecule `Cc1nc(C2=CCCN(C)C2)nn1C` [Compound 63, 1,5-Dimethyl-3-(1-methyl-1,2,5,6-tetraydro-3-pyridyl)-1,2,4-triazole, fumarate], the IC50 in assay [1] was 710 nM; in assay [2] (setting [3]) it was 160 nM.

Consider `Cc1nc(C2=CCCNC2)nn1C` [Compound 64, 1,5Dimethyl-3-(1,2,5,6-tetrahydro-3-pyridyl)-1,2,4-triazole, dihydrobromide, dihydrate], for which the 50% inhibitory concentration (IC50) in assay [1] stood at 2100 nM; in assay [2] (setting [3]), 2400 nM.

`CSc1n[nH]c(C2=CCCN(C)C2)n1` [Compound 67, 3-Methylthio-5-(1-methyl-1,2,5,6-tetrahydro-3-pyridyl)-1,2,4-triazole, fumarate]: the IC50 in assay [1] was found to be 1500 nM; in assay [2] (setting [3]), 2000 nM.

Take `CN1CCC=C(c2cnn(C)n2)C1` [Compound 70, 2-Methyl-4-(1-methyl-1,2,5,6-tetrahydro-3-pyridyl)-1,2,3-triazole, 1.5 fumarate]: the IC50 is 1.1 nM in assay [1] and 5.5 nM in assay [2] (setting [3]).

For `Cn1ncc(C2=CCCNC2)n1` [Compound 72, 2-Methyl-4-(1,2,5,6-tetrahydro-3-pyridyl)-1,2,3-triazole, fumarate], the figures for the IC50 in assay [1] and in assay [2] (setting [3]) were 0.48 nM and 790 nM, respectively.

`Cc1cnc(C2=CCCN(C)C2)o1` [Compound 75, 5-Methyl-2-(1-methyl-1,2,5,6-tetraydro-3-pyridyl)-oxazole, oxalate]: the values for the 50% inhibitory concentration (IC50) in assay [1] and in assay [2] (setting [3]) were 57 nM and 370 nM, respectively.

Turning to `Cc1cnc(C2=CCCNC2)o1` [Compound 76, 5-Methyl-2-(1,2,5,6-tetrahydro-3-pyridyl)-oxazole, fumarate], the IC50 in assay [1] was 190 nM; in assay [2] (setting [3]), 1300 nM.

Consider `COc1cnc(C2=CCCN(C)C2)o1` [Compound 80, 5-Methoxy-2-(1-methyl-1,2,5,6-tetrahydro-3-pyridyl)-oxazol, oxalate], for which, in assay [2] (setting [3]), the IC50 came to 1500 nM.
